The first experiment deals with osteoclast differentiation. The experiment in a line: Inhibitory effect on osteoclast differentiation, co-culture of bone marrow cells and osteoblast, TRAP staining. The experiment is classed as cell-based, mouse. As to conditions: Mus musculus, Osteoclast, 168 h, read-out: inhibitory effect on osteoclast differentiation(%). As for the experimental part:
The effect of the benzamidine derivative of the present invention on osteoclast formation and differentiation process was evaluated via co-culture with an osteoblast.
Tibia was aseptically ectomized from male 6 to 8-week-old ddY mice to harvest bone marrow cells by using a syringe (21G, Korea Green Cross). The bone marrow cells were suspended in 5 mL of an α-MEM medium (Gibco BRL Co., added with sodium bicarbonate (2.0 g/L), streptomycin (100 mg/L) and penicillin ([…]), filtered and then sterilized). The harvested cells were centrifuged at 600×g for 5 mins to collect the whole quantity. To remove the red blood cells in the bone marrow cells, 3 mL of Tris HCl (0.83% NH4Cl, pH 7.5) was added and well mixed. After centrifuging above cells, the numbers of the eukaryotic cells in the harvested bone marrow cells were counted and then immediately used for a co-culture system.
The progenitor bone and the parietal bone were aseptically ectomized from 1 to 2-day-old neonate ICR mice, washed with a phosphate butter solution (PBS) and treated with a mixed enzyme solution (of 0.2% collagenase and 0.1% dispase) sequentially (10, 10, 10, 20, 20 and 20 min), and then 3 to 6 groups of the cells which comprise lot of cells having the characteristics of the osteoblast were intensively collected and washed with a medium (a serum-free α-MEM). The washed cells were cultured in the α-MEM medium containing 10% FBS for 2 to 3 days. After subculturing, the collected cells were used for this experiment, and diluted to a concentration of 1×10^6 cells/mL for storage at −70[…].
The benzamidine derivative of the present invention was dissolved in a sterile distilled water or ethanol to dilute to a desired concentration. The final volume of the sample added to the cell culture medium was set at a ratio of 1:1000.
The bone marrow cells prepared in the above 1-1 and the osteoblast were co-cultured for osteoclast differentiation. Both the bone marrow cells (25,000 cells/cm^2) and the osteoblast (10,000 cells/cm^2) were plated in a 96-well plate using α-MEM medium containing FBS, and then cultured with the samples to be tested for 7 days. Differentiation factors, such as dexamethasone (10^−7 M) and vitamin D3 (10^−8 M), were also co-added to the medium from the first day of cultivation. The medium was changed with a fresh media containing a mixture of the samples and the differentiation factors every 2 to 3 days.
TRAP was used as a marker to measure the matured osteoclast in consideration of its characteristics showing a positive reaction to a TRAP staining solution. The TRAP staining solution was prepared in such the manner that 5 mg of naphtol AS-MS phosphate (sigma N-4875) as a substrate, and 25 mg of a coloring agent (Fast Red Violet LB salt) were dissolved in N,N-dimethylformamide (about 0.5 mL). 50 ml of a 0.1 N NaHCO3 buffer solution containing 50 mM tartaric acid (pH 5.0) was added thereto, and the mixture was stored at a refrigerator prior to use as a staining solution.
After culturing the cells for 7 days, the medium was removed from the wells, the cells were once washed with PBS, and then fixed with PBS containing 10% formalin for 2 to 5 min. The cells were fixed again in a mixed solution of ethanol and acetone (1/1) for about 1 min, and dried off. The cells were further treated by the TRAP staining solution for 15 mins and washed with water and dried off. The osteoclasts with 3 or more nuclei showing a TRAP-positive reaction were counted under a microscopic examination. Each of tests was confirmed over at least three times. The inhibitory effect on osteoclast differentiation of each experimental group, relative to negative controls, was expressed as a percentage (%).
As for `Cc1nc(-c2ccc(OCCCCCOc3ccc(C(=N)NO)cc3)cc2)c(CCNCCN2CCOCC2)s1` [Example 4, N-hydroxy-4-[5-(4-{2-methyl-5-[2-(2-morpholin-4-yl-ethylamino)-ethyl]-thiazol-4-yl}-phenoxy)-pentyloxy]-benzamidine], the inhibition at 1 µM came to 72.8%.

As for `Cc1nc(-c2ccc(OCCCCCOc3ccc(C(=N)NO)cc3)cc2)c(CCNC(C)C)s1` [Example 6, N-hydroxy-4-(5-{4-[5-(2-isopropylamino-ethyl)-2-methyl-thiazol-4-yl]-phenoxy}-pentyloxy)-benzamidine], the inhibition at 1 µM came to 59%.

Take `Cc1nc(-c2ccc(OCCCCCOc3ccc(C(=N)NO)cc3)cc2)c(CCn2ccnc2)s1` [Example 9, N-hydroxy-4-(5-{4-[5-(2-imidazol-1-yl-ethyl)-2-methyl-thiazol-4-yl]-phenoxy}-pentyloxy)-benzamidine]: the inhibition at 1 µM was 91.7%.

Take `CCN(CC)CCc1sc(C)nc1-c1ccc(OCCCCCOc2ccc(C(=N)NO)cc2)cc1` [Example 11, N-hydroxy-4-(5-{4-[5-(2-diethylamino-ethyl)-2-methyl-thiazol-4-yl]-phenoxy}-pentyloxy)-benzamidine]: the inhibition at 1 µM turned out to be 70%.

Regarding `Cc1nc(-c2ccc(OCCCCCOc3ccc(C(=N)NO)cc3)cc2)c(CCN(CCO)CCO)s1` [Example 12, N-hydroxy-4-{5-[4-(5-{2-[bis-(2-hydroxy-ethyl)-amino]-ethyl)-2-methyl-thiazol-4-yl)-phenoxy]-pentyloxy}-benzamidine], the inhibition at 1 µM came to 56%.

For the compound `Cc1nc(-c2ccc(OCCCCCOc3ccc(C(=N)NO)cc3)cc2)c(CCN2CC(C)OC(C)C2)s1` (stereo not drawn) [Example 14, N-hydroxy-4-[5-(4-{5-[2-(2,6-dimethyl-morpholin-4-yl)-ethyl]-2-methyl-thiazol-4-yl}-phenoxy)-pentyloxy]-benzamidine], the inhibition at 1 µM turned out to be 100%.

Regarding `N=C(NO)c1ccc(OCCCCCOc2ccc(-c3nc(N)sc3CCN3CCOCC3)cc2)cc1` [Example 16, N-hydroxy-4-(5-{4-[2-amino-5-(2-morpholin-4-yl-ethyl)-thiazol-4-yl]-phenoxy}-pentyloxy)-benzamidine], the inhibition at 1 µM was determined as 51%.

Regarding `Cc1nc(-c2ccc(OCCCCCOc3ccc(C(=N)NO)cc3)cc2)c(CCNCCN(C)C)s1` [Example 17, N-hydroxy-4-[5-(4-{5-[2-(2-dimethylamino-ethylamino)-ethyl]-2-methyl-thiazol-4-yl}-phenoxy)-pentyloxy]-benzamidine], the inhibition at 1 µM is 40%.

Turning to `COCCN(CCOC)CCc1sc(C)nc1-c1ccc(OCCCCCOc2ccc(C(=N)NO)cc2)cc1` [Example 20, N-hydroxy-4-{5-[4-(5-{2-[bis-(2-methoxy-ethyl)-amino]-ethyl}-2-methyl-thiazol-4-yl)-phenoxy]-pentyloxy}-benzamidine], the inhibition at 1 µM stood at 94%.

As to `CN1CCN(CCc2sc(-c3cccnc3)nc2-c2ccc(OCCCCCOc3ccc(C(=N)NO)cc3)cc2)CC1` [Example 24, N-hydroxy-4-[5-(4-{5-[2-(4-methyl-piperazin-1-yl)-ethyl]-2-pyridine-3-yl-thiazol-4-yl}-phenoxy)-pentyloxy]-benzamidine], the inhibition at 1 µM was 86%.

For `N=C(NO)c1ccc(OCCCCCOc2ccc(-c3nc(-c4cccnc4)sc3CCN3CCSCC3)cc2)cc1` [Example 25, N-hydroxy-4-(5-{4-[2-pyridine-3-yl-5-(2-thiomorpholin-4-yl-ethyl)-thiazol-4-yl]-phenoxy}-pentyloxy)-benzamidine], the inhibition at 1 µM is 65%.

Regarding `N=C(NO)c1ccc(OCCCCCOc2ccc(-c3nc(-c4cccnc4)sc3CCn3ccnc3)cc2)cc1` [Example 26, N-hydroxy-4-(5-{4-[5-(2-imidazol-1-yl-ethyl)-2-pyridine-3-yl-thiazol-4-yl]-phenoxy}-pentyloxy)-benzamidine], the inhibition at 1 µM amounted to 24%.

As to `CC(C)c1nc(-c2ccc(OCCCCCOc3ccc(C(=N)NO)cc3)cc2)c(CCn2ccnc2)s1` [Example 29, N-hydroxy-4-(5-{4-[5-(2-imidazol-1-yl-ethyl)-2-isopropyl-thiazol-4-yl]-phenoxy}-pentyloxy)-benzamidine], the inhibition at 1 µM came to 85%.

The experiment is the same for the next values; noted with them: Mus musculus, Osteoclast, 168 h; 1 μm; 7 days co-culture; TRAP-positive osteoclasts with 3 or more nuclei, relative to negative controls; read-out: inhibitory effect on osteoclast differentiation(%).
As to `Cc1nc(-c2ccc(OCCCCCOc3ccc(C(=N)NO)cc3)cc2)c(CCN2CCCCC2)s1` [Example 3, N-hydroxy-4-(5-{4-[2-methyl-5-(2-piperidin-1-yl-ethyl)-thiazol-4-yl]-phenoxy}-pentyloxy)-benzamidine], the inhibition at 1 µM is 90.7%.

On to `Cc1nc(-c2ccc(OCCCCCOc3ccc(C(=N)NO)cc3)cc2)c(CCNCCCn2ccnc2)s1` [Example 5, N-hydroxy-4-[5-(4-{5-[2-(3-imidazol-1-yl-propylamino)-ethyl]-2-methyl-thiazol-4-yl}-phenoxy)-pentyloxy]-benzamidine], for which the inhibition at 1 µM was found to be 93.5%.

As for `Cc1nc(-c2ccc(OCCCCCOc3ccc(C(=N)NO)cc3)cc2)c(CCNCCCOC(C)C)s1` [Example 7, N-hydroxy-4-[5-(4-{5-[2-(3-isopropoxy-propylamino)-ethyl]-2-methyl-thiazol-4-yl}-phenoxy)-pentyloxy]-benzamidine], the inhibition at 1 µM worked out at 48%.

For `Cc1nc(-c2ccc(OCCCCCOc3ccc(C(=N)NO)cc3)cc2)c(CCNC2CCCCC2)s1` [Example 10, N-hydroxy-4-(5-{4-[5-(2-cyclohexylamino-ethyl)-2-methyl-thiazol-4-yl]-phenoxy}-pentyloxy)-benzamidine], the inhibition at 1 µM came to 55%.

Regarding `Cc1nc(-c2ccc(OCCCCCOc3ccc(C(=N)NO)cc3)cc2)c(CCN(C(C)C)C(C)C)s1` [Example 13, N-hydroxy-4-(5-{4-[5-(2-diisopropylamino-ethyl)-2-methyl-thiazol-4-yl]-phenoxy}-pentyloxy)-benzamidine], the inhibition at 1 µM amounted to 43%.

With `Cc1nc(-c2ccc(OCCCCCOc3ccc(C(=N)NO)cc3)cc2)c(CCN2CCSCC2)s1` [Example 15, N-hydroxy-4-(5-{4-[2-methyl-5-(2-thiomorpholin-4-yl-ethyl)-thiazol-4-yl]-phenoxy}-pentyloxy)-benzamidine], the inhibition at 1 µM is 99%.

Take `Cc1nc(-c2ccc(OCCCCCOc3ccc(C(=N)NO)cc3)cc2)c(CCNC(C)(C)C)s1` [Example 21, N-hydroxy-4-(5-{4-[5-(2-tert-butylamino-ethyl)-2-methyl-thiazol-4-yl]-phenoxy}-pentyloxy)-benzamidine]: the inhibition at 1 µM was determined as 58%.

Regarding `Cc1nc(-c2ccc(OCCCCCOc3ccc(C(=N)NO)cc3)cc2)c(CCNCC(C)C)s1` [Example 22, N-hydroxy-4-(5-{4-[5-(2-isobutylamino-ethyl)-2-methyl-thiazol-4-yl]-phenoxy}-pentyloxy)-benzamidine], the inhibition at 1 µM amounted to 61%.

As for `N=C(NO)c1ccc(OCCCCCOc2ccc(-c3nc(-c4cccnc4)sc3CCN3CCOCC3)cc2)cc1` [Example 23, N-hydroxy-4-(5-{4-[5-(2-morpholin-4-yl-ethyl)-2-pyridine-3-yl-thiazol-4-yl]-phenoxy}-pentyloxy)-benzamidine], the inhibition at 1 µM turned out to be 91%.

Take `CC(C)c1nc(-c2ccc(OCCCCCOc3ccc(C(=N)NO)cc3)cc2)c(CCN2CCN(C)CC2)s1` [Example 28, N-hydroxy-4-[5-(4-{2-isopropyl-5-[2-(4-methyl-piperazin-1-yl)-ethyl]-thiazol-4-yl}-phenoxy)-pentyloxy]-benzamidine]: the inhibition at 1 µM is 90%.

As for `CC(C)c1nc(-c2ccc(OCCCCCOc3ccc(C(=N)NO)cc3)cc2)c(CCNCCN2CCOCC2)s1` [Example 30, N-hydroxy-4-[5-(4-{2-isopropyl-5-[2-(2-morpholin-4-yl-ethylamino)-ethyl]-thiazol-4-yl}-phenoxy)-pentyloxy]-benzamidine], the inhibition at 1 µM is 78%.

The values are drawn from patent publication US7943646B2, “Benzamidine derivative, process for the preparation thereof and pharmaceutical composition comprising same” (Dong Wha Pharmaceutical Co., Ltd., priority 2006, dated 2011).
